According to patent US20160106102A1, “KNOWN AND NEW HETEROCYCLIC COMPOUNDS AS PEST CONTROL AGENTS” (BAYER CROPSCIENCE AKTIENGESELLSCHAFT, priority 2013, published 2016):
Read-outs that look alike come from different tables or passages of the source.

Experiments:
[1] = log P determination by LC-MS in the acidic range; type: physicochemical
Description: The LC-MS determination in the acidic range is effected at pH 2.7 using 0.1% aqueous formic acid and acetonitrile (contains 0.1% formic acid) as eluents, linear gradient from 10% acetonitrile to 95% acetonitrile. Alternatively, the determination is effected in the acidic range at pH 2.3 using 0.1% aqueous phosphoric acid and acetonitrile as eluents; linear gradient from 10% acetonitrile to 95% acetonitrile.

Myzus persicae = Myzus persicae - sachet test; type: in vivo; settings: 100% = all animals killed
Description: Myzus persicae—Sachet Test Solvent: 2% by vol. of N-methylpyrrolidone • 2% by vol. of diacetone alcohol To produce an appropriate active ingredient formulation, the active ingredient is mixed with the specified amounts of solvent and the concentrate is diluted to the desired concentration with water. The active ingredient formulation is added to a specific nutrient medium in the desired concentration by pipetting. This plate is sealed and combined with a further plate populated with the green peach aphid (Myzus persicae). After the desired time, the kill in % is determined. 100% means that all the animals have been killed; 0% means that no animals have been killed.

[2] = application rate of 6 ppm in nutrient medium
[3] = application rate of 30 ppm in nutrient medium
[4] = Table 2, compounds of the formula (I-2), acidic range pH 2.7 or pH 2.3
[5] = amines of the formula (II-1), acidic range pH 2.7 (0.1% formic acid/acetonitrile) or pH 2.3 (0.1% phosphoric acid/acetonitrile)
[6] = pH 2.7, values given in the synthesis examples and NMR lists, read-out: HPLC-MS: log P
[7] = pH 2.7, amines of the formula (II-1), acidic range pH 2.7 (0.1% formic acid/acetonitrile) or pH 2.3 (0.1% phosphoric acid/acetonitrile), read-out: log P (acid)

Structure (SMILES) | log P (acid) ([1]; LC-MS in the acidic range) | efficacy (kill in %) (Myzus persicae; [2]) [%] | efficacy (kill in %) (Myzus persicae; [3]) [%] | also measured
Cc1cc(NC(=O)c2cccnc2)nn1Cc1ccc(Cl)nc1 [Compound I-1-21] | 1.42 | 100 | 100 | 
Cc1ccc(C(=O)Nc2cc(C)n(Cc3ccccc3)n2)cn1 [Compound I-1-80] | 1.71 | 80 | 100 | 
Cc1cc(NC(=O)c2cncc(F)c2)nn1CC(F)(F)F [Compound I-1-135] | 1.79 |  | 100 | 
Cc1cc(N(CC(F)F)C(=O)c2cccnc2)nn1Cc1ncccn1 [Compound I-1-265] | 1.19 | 100 | 100 | 
Cc1cc(NC(=O)c2cccnc2)nn1Cc1cn2nc(Cl)ccc2n1 [Compound I-1-351] | 1.42 |  | 100 | 
Cc1cc(NC(=O)c2cccnc2)nn1Cc1cn2cc(Cl)ccc2n1 [Compound I-1-160] | 1.03 | 100 | 100 | 
C=CCn1nnc(NC(=O)c2cccnc2)n1 [Compound I-4-8] |  | 100 | 100 | log P (acid) ([1]; Table 4, HPLC on reversed-phase column (C 18), 55° C., acidic range (pH 2.7 or pH 2.3)): 0.60
O=C(Nc1ccn(Cc2ccc(F)cc2F)n1)c1cccnc1 [Compound I-1-76] | 1.68 | 100 | 100 | 
Cc1cc(NC(=O)c2cccnc2)nn1Cc1nc(-c2ccccc2)no1 [Compound I-1-300] | 2.01 | 100 | 100 | 
Cc1cc(NC(=O)c2cccnc2)nn1-c1ccc(C(F)(F)F)cn1 [Compound I-1-45] | 2.64 | 100 | 100 | 
CCOC(=O)c1ccc(Cn2ccc(NC(=O)c3cccnc3)n2)cc1 [Compound I-1-92] | 1.85 |  | 100 | 
Cc1cc(NC(=O)c2cccnc2)nn1Cc1ccc2ccccc2n1 [Compound I-1-341] | 1.66 | 100 | 100 | 
Cc1ccc2oc(Cn3nc(NC(=O)c4cccnc4)cc3C)nc2c1 [Compound I-1-353] | 1.9 | 100 | 100 | 
Cc1cc(NC(=O)c2cccnc2)nn1-c1ccccc1 [Compound I-1-349] | 1.7 |  | 100 | 
COC(=O)c1cccc(Cn2ccc(NC(=O)c3cccnc3)n2)c1 [Compound I-1-77] | 1.57 | 100 | 100 | 
O=C(Nc1ccn(Cc2cccc(C(F)(F)F)c2)n1)c1ccc(Cl)nc1 [Compound I-1-87] | 2.82 |  | 100 | 
Cc1cc(NC(=O)c2cccnc2)nn1Cc1ccc(Cl)c(Cl)n1 [Compound I-1-301] | 2.06 |  | 100 | 
CC(NC(=O)Cn1nnc(NC(=O)c2cccnc2)n1)c1ccccc1 (stereo not drawn) [Compound I-4-6, N-(2-{2-Oxo-2-[(1-phenylethyl)amino]ethyl}-2H-tetrazol-5-yl)nicotinamide] |  |  |  | chromatographic logP ([1]; reversed-phase HPLC column (C18), pH 2.7, Table 4, HPLC on reversed-phase column (C 18), 55° C., acidic range (pH 2.7 or pH 2.3), read-out: log P (acid)): 1.34; chromatographic logP ([1]; reversed-phase HPLC column (C18), pH 2.7, values given in the synthesis examples and NMR lists, read-out: HPLC-MS: log P): 1.34; pest or weed control at 6 ppm (Myzus persicae; Myzus persicae, application rate of 6 ppm in nutrient medium, read-out: efficacy (kill in %)): 100%; pest or weed control at 30 ppm (Myzus persicae; Myzus persicae, application rate of 30 ppm in nutrient medium, read-out: efficacy (kill in %)): 100%

Structure (SMILES) | log P (acid) ([1]; LC-MS in the acidic range) | efficacy (kill in %) (Myzus persicae; [2]) [%] | efficacy (kill in %) (Myzus persicae; [3]) [%] | also measured
Cc1nc(NC(=O)c2cccnc2)n[nH]1 [Compound I-2-1] |  |  | 100 | log P (acid) [1, 4]: <−0.23
Cc1cc(NC(=O)c2cncc(F)c2)nn1CC(=O)O [Compound I-1-114] | 0.87 |  |  | 
Cc1nc(-n2cnc(NC(=O)c3cccnc3)n2)nc(C)c1C [Compound I-2-25] |  |  |  | log P (acid) [1, 4]: 1.07
Cc1ccnc(Cn2nc(N)cc2C)n1 [II-1-16] |  |  |  | log P (acid) [1, 5]: 0.02
Cc1cc([N+](=O)[O-])nn1-c1ncccn1 [2-(5-Methyl-3-nitro-1H-pyrazol-1-yl)pyrimidine] |  |  |  | chromatographic logP [1, 6]: 1.41
Nc1ccn(Cc2ncc(C(F)(F)F)cc2Cl)n1 [II-1-8, 1-{[3-Chloro-5-(trifluoromethyl)pyridin-2-yl]methyl}-1H-pyrazole-3-amine] |  |  |  | chromatographic logP [1, 7]: 1.36; chromatographic logP [1, 6]: 1.36
O=C1c2ccccc2C(=O)N1c1cc(Br)n(Cc2ncccn2)n1 [2-[5-Bromo-1-(pyrimidin-2-ylmethyl)-1H-pyrazol-3-yl]-1H-isoindole-1,3(2H)-dione] |  |  |  | chromatographic logP [1, 6]: 2.02
Cc1cc(N)nn1Cn1nc(C)n(C)c1=O [II-1-46] |  |  |  | log P (acid) [1, 5]: <−0.23
Nc1cc(C2CC2)n(Cc2ccccc2)n1 [II-1-2] |  |  |  | log P (acid) [1, 5]: 1.36
Cc1nn(-c2ccccn2)nc1N [5-Methyl-2-(pyridin-2-yl)-2H-1,2,3-triazol-4-amine] |  |  |  | chromatographic logP [1, 6]: 0.74
Nc1ccn(C(CF)CF)n1 [II-1-7] |  |  |  | log P (acid) [1, 5]: −0.09
COc1ccc(-n2ccc(NC(=O)c3cccnc3)n2)cc1 [Compound I-1-271] | 1.6 |  |  | 
Cc1nc(NC(=O)c2cccnc2)nn1Cc1ncccn1 [Compound I-2-2] |  |  |  | log P (acid) [1, 4]: −0.05
Cc1cc(N)nn1Cc1ncccn1 [II-1-23, 5-Methyl-1-(pyrimidin-2-ylmethyl)-1H-pyrazole-3-amine] |  |  |  | chromatographic logP [1, 7]: < -0.23; chromatographic logP [1, 6]: < -0.23
Nc1cc(Br)n(Cc2ncccn2)n1 [II-1-30, 5-Bromo-1-(pyrimidin-2-ylmethyl)-1H-pyrazole-3-amine] |  |  |  | chromatographic logP [1, 7]: 0.56; chromatographic logP [1, 6]: 0.56
Cc1cc(NC(=O)c2cnc(Cl)c(Cl)c2)nn1Cc1cccc(F)c1 [Compound I-1-96] | 3.26 |  |  | 
COC(=O)c1cc(C)n(Cc2ncccn2)n1 [Methyl 5-methyl-1-(pyrimidin-2-ylmethyl)-1H-pyrazole-3-carboxylate] |  |  |  | chromatographic logP [1, 6]: 0.98

The next lines start with results.

log P (acid) ([1]; LC-MS in the acidic range) | Structure (SMILES) | efficacy (kill in %) (Myzus persicae; [2]) [%] | efficacy (kill in %) (Myzus persicae; [3]) [%] | also measured
1.89 | Cc1cc(NC(=O)c2cccnc2)nn1C(=O)NC(C)C(F)(F)F (stereo not drawn) [Compound I-1-307] | 100 | 100 | 
1.55 | O=C(Nc1ccn(Cc2c(F)cccc2F)n1)c1cccnc1 [Compound I-1-68] |  | 100 | 
1.52 | O=C(Nc1ccn(Cc2ccccc2)n1)c1cccnc1 [Compound I-1-84] | 100 | 100 | 
1.17 | CSCn1nc(NC(=O)c2cccnc2)cc1C [Compound I-1-241] | 100 | 100 | 
1.0 | N#Cc1cc(NC(=O)c2cccnc2)nn1Cc1ncccn1 [Compound I-1-269] | 100 | 100 | 
2.36 | Cc1cc(NC(=O)c2cccnc2)nn1-c1ccc(Cl)cc1Cl [Compound I-1-207] | 100 | 100 | 
1.08 | Cc1cc(NC(=O)c2cccnc2)nn1CN1CCS/C1=N/C#N [Compound I-1-142] | 100 | 100 | 
2.21 | Cc1cc(NC(=O)c2cccnc2)nn1C(=O)NCCOc1c(F)cccc1F [Compound I-1-171] | 80 | 100 | 
1.05 | Cc1cc(NC(=O)c2cccnc2)nn1C(=O)NCc1ccncn1 [Compound I-1-336] | 100 | 100 | 
2.07 | O=C(Nc1ccn(Cc2cccc(C(F)(F)F)c2)n1)c1cccnc1 [Compound I-1-71] |  | 100 | 
0.89 | CCOC(=O)Cn1nc(NC(=O)c2cccnc2)cc1C [Compound I-1-24] | 100 | 100 | 
1.37 | N#Cc1ccccc1Cn1ccc(NC(=O)c2cccnc2)n1 [Compound I-1-89] | 100 | 100 | 
1.83 | Cc1cccc(Cn2ccc(NC(=O)c3cccnc3)n2)c1 [Compound I-1-72] | 100 | 100 | 
2.57 | Cc1cc(NC(=O)c2ccc(Cl)nc2)nn1Cc1ccc(F)cc1 [Compound I-1-95] |  | 100 | 
1.04 | O=C(Nc1cc(Cl)n(Cc2ncccn2)n1)c1cccnc1 [Compound I-1-197] | 100 | 100 | 
1.76 | Cc1ccc(C(=O)Nc2cc(C)n(Cc3ccc(F)cc3)n2)cn1 [Compound I-1-109] |  |  | 
2.89 | Cc1cc(F)c(Cn2nc(NC(=O)c3cccnc3)cc2C)cc1SCC(F)(F)F [Compound I-1-337] |  |  | 
